# Values quoted from earlier work, collected in patent publication US9057089B2, “Methods for natural product optimization” (The University of Wyoming, priority 2008, dated 2015).
# Legend:
# [1] = in vivo
# [2] = test system: transpeptidases (penicillin binding proteins, PBPs)
# [3] = test system: peptidoglycan synthesis; conditions: metabolic labeling
# [4] = test system: fungi, protozoa, or eukaryotic cells
# [5] = human clinical trials
# [6] = test system: growing E. coli cells
# [7] = test system: RpoB-V1275F mutant; conditions: rpoB Val→Phe substitution (position 1275)
compound,measurement,setting,value
"CCCC1OC(=O)C(C)CC(C)CCCCC(=O)CCCC(CC)/C=C/C=C(\COC)CCC(O)C(O)CC(O)CNC1=O (centres unmarked) [Antibiotic TA, myxovirescin]",safety,[1],safe
same,inhibition of final cross-linking step catalyzed by transpeptidases,[2],does not inhibit
same,peptidoglycan synthesis,[3],blocks peptidoglycan synthesis
same,"activity on fungi, protozoa, or eukaryotic cells",[4],not active
same,therapeutic effect in periodontal diseases,[5],effective therapeutic
same,"three indices (plaque, gingival, and bleeding)",[5]; only two treatments,significantly improved
same,effect of sera on activity,[6]; sera,not inhibited by sera
same,growing E. coli cells killed,[6]; within 30 minutes at 2 μg/ml,99%
"C/C=C/C/C=C(\C)C(O)CC/C(C)=C/C=C(\C)C(=O)c1c(O)cc([C@H](C)CC/C=C/NC(=O)OC)oc1=O (some centres unmarked) [Cor, corallopyronin]",increase of antibiotic MIC values relative to wild type cells,[7],> 8 fold
"C/C(=C\Cc1ccccc1)CCC(=O)C[C@H]1C[C@H](O)C/C(C)=C/C/C=C/C/C(CC(=O)O)=C\C(=O)O1 [Rip, ripostatin]",increase of antibiotic MIC values relative to wild type cells,[7],> 16 fold
myxopyronin,increase of antibiotic MIC values relative to wild type cells,[7],> 32 fold
